Measurements published in ChEMBL document CHEMBL1795339, “Novel purine-based fluoroaryl-1,2,3-triazoles as neuroprotecting agents: synthesis, neuronal cell culture investigations, and CDK5 docking studies” (Bioorg Med Chem Lett, 2011).
The source made the active and inactive calls. The rule behind the calls is not given here.

Tested on: Hippocampal neuron
Test: Neuroprotective activity against Amyloid beta-induced mouse hippocampal neuronal death at 1 uM pretreated for 1 hr before Amyloid beta treatment measured after 48 hrs using propidium iodide staining by fluorescence […] microscopy
Format: functional, tissue-based
Conditions: Hippocampus

SMILES | Activity
Clc1nc(NCc2ccccc2)c2ncn(Cc3cn(Cc4ccccc4)nn3)c2n1 | Active
Fc1c(F)c(F)c(Cn2cc(Cn3cnc4c(NCc5ccccc5)nc(Cl)nc43)nn2)c(F)c1F | inactive
CC[C@H](CO)Nc1nc(NCc2ccccc2)c2ncn(C(C)C)c2n1 | Active
CN1CC[C@H](c2c(O)cc(O)c3c(=O)cc(-c4ccccc4Cl)oc23)[C@H](O)C1 | Active
Fc1ccccc1Cn1cc(Cn2cnc3c(NCc4ccccc4)nc(Cl)nc32)nn1 | Active
Fc1cccc(F)c1Cn1cc(Cn2cnc3c(NCc4ccccc4)nc(Cl)nc32)nn1 | Active
